From US20200239398A1, “METHYLENE-CYCLOALKYLACETATE DERIVATIVES AND THEIR USE IN TREATMENT OF NEUROTROPIC CONDITIONS” (Yissum Research Development Company of The Hebrew …, priority 2018, published 2020)

Experiments:
[1] = tested on: PC12 cells; experiment: PC12 cell neurotropic assay (neurite outgrowth); type: cell-based, rat; conditions: 10 μM; for Neurotropic effect (mean ± SE) Seven Days Df / Neurotropic effect (mean ± SE) Two Days Df: PC12 cells, Df = fractal dimension of neurite outgrowth; for Neurotropic effect (mean ± SE) Seven Days Df: seven days of treatment; for Neurotropic effect Seven Days NGF (%) / Neurotropic effect Two Days NGF (%): relative to NGF 50 ng/ml; for Neurotropic effect (mean ± SE) Two Days Df: two days of treatment; for inducing fast neurite outgrowth (in words): after two days of treatment
Description: PC12 cells were grown in T-200 flasks in high glucose (4.5 gr/L) DMEM medium supplemented with 7% FCS, 7% horse serum and 1% penicillin and streptomycin. Cells were incubated at 37° C. in a humidified incubator containing 6% CO2. All experiments were carried out in a clean room, according to ISO7 requirements (10,000 particles/m^3).
Tissue culture Falcon plates were coated with 200 μg/ml collagen type 1 and placed under UV light for 30 minutes for sterilization. Thereafter, one ml of PC12 cell suspension (5000 cells/well) was applied in 12 or 24 well plate, respectively. The cultures were grown in the incubator two days before exposure to investigated compound.
This experimental procedure contained two controls. The first consisted of untreated cells (negative control), representing the random effect: “noise signal”—the ability of cells to spontaneously grow neurite outgrowth which in seven days are of a length less than two-fold cell diameter. Also, negative controls consisted of cultures treated with 1% DMSO, solvent used to solubilize all compounds. The positive control consisted of cells treated with 50 ng/ml NGF, indicating maximal neurite outgrowth that can be achieved in this model. The experimental group consisted of PC12 cells treated with synthetic compounds. In each experiment, after two and seven days, six cultures were evaluated for neurotropic effect. These consecutive observations allow measurement of the progress of neurite outgrowth elongation and the percentage of cells with neurites.^31
In order to assess neurotropic effect, the neurite outgrowth length in each culture was quantified. For this purpose, each culture was placed under an inverted microscope and photographed by the attached camera. Each well was photographed at three to five representative areas. After acquiring the photos, they were analyzed by ImageJ, NIH software. The neurite outgrowth was estimated by fractal dimension (Df), a statistical parameter that describes the fractional space (area and length) filled by neurite outgrowth. Df ranged from 0 to 1.20. This method estimates the amount of picsel covered by neurites/cells compared to empty space per square field, and therefore plotting log (number of square boxes) vs. log (size in pixels) relationship generates a linear curve with Df representing the slope of the curve. Every photograph that was taken, was opened in a Photoshop software and a new layer was generated on it. Using a 5-pixel wide digital pencil tool, all the outgrowths were marked and the layer with the markers (outgrowth network) was saved in a 0-255 gray scale as described in FIG. 2. Then, the saved layer was opened by ImageJ NIH software. The software “skeletonized” the layer, measured the length and complexity of every outgrowth in a fractal box count and calculated the fractional dimension parameter (Df).^32
Each experiment was performed in duplicates and repeated three to four times (n=6-8). By using SPSS software, one way ANOVA was performed for the fractional dimension of each compound, in order to evaluate the neurotropic effect. In case of significance, Bonferroni post-hoc analysis was performed. The results were considered significant when p<0.05.

[2] = tested on: PC12 cells; experiment: Cytotoxicity (cell morphology, LDH release); type: cell-based; conditions: 10 μM
[3] = target: Gamma-aminobutyric acid Receptor A (GABAA); type: cell-based; conditions: Blocker mode; reference compound; read-out: RC50 (the source's name)
[4] = target: T1, Nicotinic acetylcholine Receptor-alpha-4 beta-2 (nAChR (a4/b2)) (Homo sapiens, UniProt P17787+P43681); experiment: cell-based; type: cell-based; conditions: Blocker mode; reference compound; read-out: RC50 (the source's name)
T1 construct: DiscoverX (SAFETYscan contract panel)

[5] = target: T2, N-methyl-D-aspartate (NMDA) Glutamate Receptor 1A/2B (NMDAR (1A/2B)) (Homo sapiens, UniProt Q05586+Q13224); experiment: SAFETYscan NMDAR (1A/2B) Ion channel; type: cell-based; conditions: Blocker mode; reference compound; read-out: RC50 (the source's name)
T2 construct: DiscoverX (SAFETYscan contract panel)

[6] = tested on: PC12 cells; experiment: Additive neurotropic effect between HU-MCA-13 and NGF, PC12 neurite outgrowth; type: cell-based, rat
Description: PC12 cells were cultured in T-200 flasks in high glucose (4.5 gr/L) DMEM medium supplemented with 7% FCS, 7% horse serum and 1% penicillin and streptomycin. Cells will be maintained at 37° C. in a humidified incubator containing 6% CO2. All experiments were carried out in a GLP clean room, according to ISO 7 requirements (10,000 particles/m^3). For neurotropic experiments, tissue culture Falcon plates were coated with 200 μg/ml collagen type 1 and placed under UV light for 30 minutes for sterilization. Thereafter, one ml of PC12 cell suspension (5000 cells/well) was applied in 12 or 24 well plate, respectively. The cultures were maintained in the incubator two days before exposure to investigated compound. Each neurotropic experiment contained two controls. The first consisted of untreated cells (negative control), representing the random effect: “noise signal”—the ability of cells to spontaneously grow neurite outgrowth which in seven days are of a length less than two-fold cell diameter. Also, negative controls consisted of cultures treated with 1% DMSO, solvent used to solubilize HU-MCA-13. The positive controls represented neuronal cultures treated with 50 ng/ml NGF, indicating maximal neurite outgrowth that can be achieved in this model. The experimental group consisted of PC12 cells treated with 10 μM HU-MCA-13. In each experiment, after two and seven days, six cultures will be evaluated for neurotropic effect. These consecutive observations allow measurement of the progress of neurite outgrowth elongation and the percentage of cells with neurites (Katzir et al. A quantitative bioassay for nerve growth factor, using PC12 clones expressing different levels of trkA receptors. J Mol Neurosci. 2002; 18(3):251-64). In order to assess neurotropic effect, the neurite outgrowth length in each culture was quantified. For this purpose, each culture was placed under an inverted microscope and photographed by the attached camera. Each well was photographed at three to five representative areas. After acquiring the photos, they were analyzed by ImageJ, NIH software. The neurite outgrowth was estimated by fractal dimension (Df), a statistical parameter that describes the fractional space (area and length) filled by neurite outgrowth. Df ranged from 0 to 1.20. This method estimated the amount of picsels covered by neurites/cells compared to empty space per square field, and therefore plotting log(number of square boxes) vs. log(size in pixels) relationship generated a linear curve with Df representing the slope of the curve. Every photograph that was taken, was opened in a Photoshop software and a new layer was generated on it. Using a 5-pixel wide digital pencil tool, all the outgrowths were marked and the layer with the markers (outgrowth network) were saved in a 0-255 gray scale. Thereafter, the saved layer was opened by ImageJ NIH software.
Using an established PC12 neurotropic in vitro assay, the regenerative enhancing effect of HU-MCA-13 when applied concomitantly, together with NGF, a known neurotrophin was investigated. […] NGF alone, as positive control, at the conventional dose of 50 ng/ml enhanced neurite outgrowth to a Df value of 0.54 at 2 days and 0.4 at 7 days of treatment (FIG. 5). To verify a possible additive effect, the cultures with a mixture of low dose NGF (1 ng/ml generating 10% neurite outgrowth=Df of 0.05) and 1 μM HU-MCA-13 generating about 10-15% neurite outgrowth=Df of 0.04) were tested and found after 2 days a Df of 0.85 and after 7 days a Df of 0.38. NGF is released by hematopoietic cells during polyneuropathy inflammatory process, this finding further strength the possibility of a potential enhancement regenerative effect of this drug upon in vivo therapy.

[7] = tested on: dorsal root ganglion (DRG) sensory neurons; experiment: Neurite outgrowth in dorsal root ganglion (DRG) explants; type: cell-based, mice
Description: To perform these experiments, about 10 dorsal root ganglia (DRGs) were excised under sterile conditions and transferred to 0.25% Type IV collagenase (Sigma-Aldrich-Merck) in Dulbecco's Modified Eagle Medium (DMEM) at 37° C. for 45 min, followed by a 20-min incubation with 0.025% trypsin in DMEM, to digest the associated connective tissue surrounding the neurons. After plating the ganglia onto collagen (50 μg/ml)/laminin mixture (5 μg/ml)-coated tissue culture wells for 24 h, DRG neurons were cultured for additional 1-7 days in fresh Neurobasal A/B27 containing either 50 ng/ml NGF (positive control), blank medium (DMSO 1%) control and HU-MCA-13. The cultures were photographed; thereafter the ganglia were immune-stained for neuronal tubulin and again photographed using a fluorescent microscope. Image analysis was performed by a researcher blinded to the experimental conditions. Neurite outgrowth distance measured in micrometers, was quantified as for PC12 cultures.

[8] = NGF 50 ng/ml, DRG explants, 5 days

T2 sequence (Q13224 27-1484, other chains not shown): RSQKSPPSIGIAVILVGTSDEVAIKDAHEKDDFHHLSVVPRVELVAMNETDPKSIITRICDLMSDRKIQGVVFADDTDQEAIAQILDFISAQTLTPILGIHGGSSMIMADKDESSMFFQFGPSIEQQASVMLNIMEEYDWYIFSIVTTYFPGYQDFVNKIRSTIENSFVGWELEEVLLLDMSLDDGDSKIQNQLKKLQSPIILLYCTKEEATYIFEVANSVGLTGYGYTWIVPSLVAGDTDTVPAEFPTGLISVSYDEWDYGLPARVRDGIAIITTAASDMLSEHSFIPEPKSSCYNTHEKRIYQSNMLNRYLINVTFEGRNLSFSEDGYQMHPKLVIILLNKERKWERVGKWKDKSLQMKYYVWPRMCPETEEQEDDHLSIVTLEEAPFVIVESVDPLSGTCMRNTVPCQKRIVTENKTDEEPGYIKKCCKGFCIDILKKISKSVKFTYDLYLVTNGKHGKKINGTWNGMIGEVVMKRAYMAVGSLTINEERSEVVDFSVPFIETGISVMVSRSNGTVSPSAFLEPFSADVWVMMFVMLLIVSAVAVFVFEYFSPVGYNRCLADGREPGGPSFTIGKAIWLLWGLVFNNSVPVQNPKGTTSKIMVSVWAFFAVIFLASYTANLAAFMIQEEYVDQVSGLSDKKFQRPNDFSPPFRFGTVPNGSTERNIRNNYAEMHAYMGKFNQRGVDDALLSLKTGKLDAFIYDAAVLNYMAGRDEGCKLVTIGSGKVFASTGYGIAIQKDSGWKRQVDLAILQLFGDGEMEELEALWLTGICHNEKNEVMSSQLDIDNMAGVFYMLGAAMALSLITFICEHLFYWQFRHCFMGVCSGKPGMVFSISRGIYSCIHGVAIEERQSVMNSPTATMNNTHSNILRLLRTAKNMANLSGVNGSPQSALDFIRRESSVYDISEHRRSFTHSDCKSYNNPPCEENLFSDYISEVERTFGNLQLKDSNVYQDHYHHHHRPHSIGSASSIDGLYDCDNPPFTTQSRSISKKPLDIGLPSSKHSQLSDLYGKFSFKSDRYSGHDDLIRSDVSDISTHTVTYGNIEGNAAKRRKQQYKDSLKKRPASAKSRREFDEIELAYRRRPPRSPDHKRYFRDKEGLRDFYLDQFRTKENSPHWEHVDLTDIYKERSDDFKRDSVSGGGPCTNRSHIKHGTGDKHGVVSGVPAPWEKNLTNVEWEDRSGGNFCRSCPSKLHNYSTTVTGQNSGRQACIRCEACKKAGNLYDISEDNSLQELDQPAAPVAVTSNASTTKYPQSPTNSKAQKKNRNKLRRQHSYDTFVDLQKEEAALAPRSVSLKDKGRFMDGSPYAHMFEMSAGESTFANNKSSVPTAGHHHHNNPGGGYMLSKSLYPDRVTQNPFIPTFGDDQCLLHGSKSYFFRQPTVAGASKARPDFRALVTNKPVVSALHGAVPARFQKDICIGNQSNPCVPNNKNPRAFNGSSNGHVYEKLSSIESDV
T1 sequence (P43681 29-627 limits assumed): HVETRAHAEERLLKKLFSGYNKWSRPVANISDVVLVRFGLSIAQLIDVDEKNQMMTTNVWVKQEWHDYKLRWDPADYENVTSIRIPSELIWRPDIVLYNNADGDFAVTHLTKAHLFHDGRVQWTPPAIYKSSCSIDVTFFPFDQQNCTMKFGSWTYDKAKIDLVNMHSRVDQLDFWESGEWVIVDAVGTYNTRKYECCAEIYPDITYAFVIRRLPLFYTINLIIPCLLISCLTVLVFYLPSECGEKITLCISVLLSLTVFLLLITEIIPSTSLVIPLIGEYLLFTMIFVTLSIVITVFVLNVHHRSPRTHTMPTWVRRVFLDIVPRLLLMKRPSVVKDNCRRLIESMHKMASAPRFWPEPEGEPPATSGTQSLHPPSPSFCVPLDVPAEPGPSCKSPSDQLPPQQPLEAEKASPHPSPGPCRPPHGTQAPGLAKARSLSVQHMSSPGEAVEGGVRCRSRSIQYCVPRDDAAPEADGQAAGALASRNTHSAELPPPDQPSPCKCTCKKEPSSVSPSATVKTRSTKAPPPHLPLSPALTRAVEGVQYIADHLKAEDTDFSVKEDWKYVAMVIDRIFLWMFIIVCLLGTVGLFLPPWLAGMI
T1 sequence (P17787 26-502): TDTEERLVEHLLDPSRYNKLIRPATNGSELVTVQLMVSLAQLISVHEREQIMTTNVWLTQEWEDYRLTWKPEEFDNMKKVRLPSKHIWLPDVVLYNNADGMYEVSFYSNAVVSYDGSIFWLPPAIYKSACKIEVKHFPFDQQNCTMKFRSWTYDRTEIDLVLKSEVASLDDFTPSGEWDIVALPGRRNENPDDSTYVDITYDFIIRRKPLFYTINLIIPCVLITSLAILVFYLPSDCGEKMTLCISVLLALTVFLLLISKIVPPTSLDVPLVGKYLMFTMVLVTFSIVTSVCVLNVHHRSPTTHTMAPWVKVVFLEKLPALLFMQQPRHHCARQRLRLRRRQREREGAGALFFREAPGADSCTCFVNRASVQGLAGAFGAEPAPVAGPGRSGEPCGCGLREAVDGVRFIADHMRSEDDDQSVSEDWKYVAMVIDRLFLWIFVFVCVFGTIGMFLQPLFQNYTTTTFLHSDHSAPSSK

C=CCC1CC(C(C)(C)C)C[C@@H](CC(=O)O)C1=C (some centres unmarked) [Compound 12]
Neurotropic effect (mean ± SE) Seven Days Df [1]: 0.17 ± 0.16
Neurotropic effect Seven Days NGF (%) [1]: 37.0%
neurotropic activity (in words) ([1]; after seven days of treatment): significant neurotropic activity

C=CCC1CN(C(=O)OCC)CC(CC(=O)OC)C1=C (centres unmarked) [Compound 15, Ethyl-3-allyl-5-(2-methoxy-2-oxoethyl)-4-methylenepiperidine-1-carboxylate]
cytotoxicity (in words) [2]: partial cytotoxic activity

C=CCC1CC(c2ccccc2)C[C@@H](CC(=O)O)C1=C (some centres unmarked) [Compound 10]
neurotropic activity (in words) ([1]; PC12 cell neurotropic assay): no activity was detected

Picrotoxin [reference compound]
IC50 [3]: 5920 nM

Dihydro-AY-erythroidine [reference compound]
IC50 [4]: 707 nM

C=C(C)CC1CCCC(CC(=O)OC)C1=C (centres unmarked) [Compound 5, Methyl 2-(3-(2-methylallyl)-2-methylenecyclohexyl)acetate]
loss of activity from day two to seven [1]: 50%
Neurotropic effect (mean ± SE) Seven Days Df [1]: 0.20 ± 0.17
Neurotropic effect (mean ± SE) Two Days Df [1]: 0.42 ± 0.01
Neurotropic effect Seven Days NGF (%) [1]: 43.5%
Neurotropic effect Two Days NGF (%) [1]: 91.3%
neurotropic activity (in words) ([1]; after seven days of treatment): significant neurotropic activity
inducing fast neurite outgrowth (in words) [1]: most active

C[C@]12N[C@H](Cc3ccccc31)c1ccccc12 [MK 801, reference compound]
IC50 [5]: 52.8 nM

C=C1C(C/C=C/c2ccccc2)CCC[C@H]1CC(=O)O (some centres unmarked) [Compound 8]
cytotoxicity (in words) [2]: partial cytotoxic activity

C=CCC1CC(c2ccccc2)CC(CC(=O)OC)C1=C (centres unmarked) [Compound 11, Methyl 2-(3-allyl-2-methylene-5-phenylcyclohexyl)acetate]
Neurotropic effect (mean ± SE) Seven Days Df [1]: 0.01 ± 0.01
Neurotropic effect Seven Days NGF (%) [1]: 2.2%
neurotropic activity (in words) ([1]; PC12 cell neurotropic assay): no activity was detected

COC(=O)CC1CCCC(CC=C(C)C)C1=O (centres unmarked) [Compound 21, Methyl 2-(3-(3-methylbut-2-en-1-yl)-2-oxocyclohexyl)acetate]
Neurotropic effect (mean ± SE) Seven Days Df [1]: 0.01 ± 0.01
Neurotropic effect Seven Days NGF (%) [1]: 2.2%

C=CCC1CC(=C)C[C@@H](CC(=O)O)C1=C (some centres unmarked) [Compound 9]
Neurotropic effect (mean ± SE) Seven Days Df [1]: 0.01 ± 0.01
Neurotropic effect Seven Days NGF (%) [1]: 2.2%
neurotropic activity (in words) ([1]; PC12 cell neurotropic assay): no activity was detected

C=C(C)CC1CCCC(CC(=O)OC)C1=O (centres unmarked) [Compound 18, Methyl 2-(3-(2-methylallyl)-2-oxocyclohexyl)acetate]
cytotoxicity (in words) [2]: partial cytotoxic activity

C=C1C(CC=C(C)C)CCC[C@H]1CC(=O)O (some centres unmarked) [Compound 6]
Neurotropic effect (mean ± SE) Seven Days Df [1]: 0.20 ± 0.17
Neurotropic effect (mean ± SE) Two Days Df [1]: 0.14 ± 0.15
Neurotropic effect Seven Days NGF (%) [1]: 43.5%
Neurotropic effect Two Days NGF (%) [1]: 30.4%
neurotropic activity (in words) ([1]; after seven days of treatment): significant neurotropic activity
inducing fast neurite outgrowth (in words) [1]: most active

C=C1C(CC=C(C)C)CCCC1CC(=O)OC (centres unmarked) [Compound 7, Methyl 2-(3-(3-methylbut-2-en-1-yl)-2-methylenecyclohexyl)acetate]
Neurotropic effect (mean ± SE) Seven Days Df [1]: 0.20 ± 0.17
Neurotropic effect (mean ± SE) Two Days Df [1]: 0.12 ± 0.14
Neurotropic effect Seven Days NGF (%) [1]: 43.5%
Neurotropic effect Two Days NGF (%) [1]: 26.1%
neurotropic activity (in words) ([1]; after seven days of treatment): significant neurotropic activity
inducing fast neurite outgrowth (in words) [1]: most active

B1: NGF: Tissue culture grade mouse β-NGF from Alomone Labs; positive control (protein, UniProt P01139 122-241, looked up)
Beta-nerve growth factor: SSTHPVFHMGEFSVCDSVSVWVGDKTTATDIKGKEVTVLAEVNINNSVFRQYFFETKCRASNPVESGCRGIDSKHWNSYCTTTHTFVKALTTDEKQAAWRFIRIDTACVCVLSRKATRRG
modifications: Beta-nerve growth factor
notes: Tissue culture grade mouse β-NGF from Alomone Labs; positive control
neurite outgrowth Df ([6]; NGF alone 50 ng/ml, 2 days): 0.54
neurite outgrowth Df ([6]; NGF alone 50 ng/ml, 7 days): 0.4
neurite outgrowth ([6]; low dose NGF 1 ng/ml): 10%
neurite outgrowth Df ([6]; low dose NGF 1 ng/ml): 0.05
increase in neurite outgrowth ([7]; NGF 50 ng/ml vs blank control medium): 3-4 fold
neurite outgrowth length [7, 8]: 700 micrometer
ratio between the area covered by neurites and that covered by the DRG ganglia [7, 8]: 9
